{"source": "patent US20060094645A1", "about": "“Method for defining and treating chemically-induced immune disorders using tumor necrosis factor (TFNalpha), interleukin-1 (lL-1), and interleulin-6R(lL-6R) antagonists” (priority 2004, published 2006)", "target": "T1, TNF (Homo sapiens, UniProt P01375)", "T1 construct": "endogenous in cells; host or cells: the patients' own TNF in vivo", "T1 sequence (P01375 77-233 limits assumed)": "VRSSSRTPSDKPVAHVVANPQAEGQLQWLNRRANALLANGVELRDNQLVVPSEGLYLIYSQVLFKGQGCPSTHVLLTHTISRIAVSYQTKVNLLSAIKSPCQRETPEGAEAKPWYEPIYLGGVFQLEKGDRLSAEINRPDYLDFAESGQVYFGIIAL", "test": "Case report: Arthritis and Vasculitis associated with silicone breast implants, anti-TNF treatment", "type": "in vivo", "conditions": "patient after implant removal; earlier treatment for over 20 years with corticosteroids and methotrexate", "data": [{"smiles": "CN(Cc1cnc2nc(N)nc(N)c2n1)c1ccc(C(=O)N[C@@H](CCC(=O)O)C(=O)O)cc1", "note": "[methotrexate]", "values": [{"measurement": "outcome of Arthritis and Vasculitis associated with silicone breast implants", "result": "without success"}]}]}
